IC50 data for 47 compounds are collected here from patent US10280150B2 (FORMA TM2, Inc., priority 2014, dated 2019).

IDH1-R132H recombinant protein, sequence (O75874 whole entry R132H): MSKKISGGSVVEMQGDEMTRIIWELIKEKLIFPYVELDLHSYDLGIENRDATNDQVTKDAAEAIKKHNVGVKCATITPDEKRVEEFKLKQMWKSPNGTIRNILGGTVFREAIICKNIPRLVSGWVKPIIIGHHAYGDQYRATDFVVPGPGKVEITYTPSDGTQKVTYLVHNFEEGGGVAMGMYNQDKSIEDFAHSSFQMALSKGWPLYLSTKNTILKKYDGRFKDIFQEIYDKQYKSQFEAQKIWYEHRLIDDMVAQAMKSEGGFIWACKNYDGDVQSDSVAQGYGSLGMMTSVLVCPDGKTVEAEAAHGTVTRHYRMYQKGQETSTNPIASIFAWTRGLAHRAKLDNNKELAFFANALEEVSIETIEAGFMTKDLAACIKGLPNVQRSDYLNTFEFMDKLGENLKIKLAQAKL

In the assay the target is IDH1-R132H recombinant protein (Homo sapiens (Human), UniProt O75874, R132H). Nature of the assay: IDH1-R132H enzymatic assay (inhibition of NADPH consumption, diaphorase/resazurin readout). Format: biochemical. The following applies: read-out: Enzyme IDH1 R132H IC50 (Range). The protocol:
Assays were performed in a 384-well black plate. An aliquot of 250 nL of compound was incubated with 10 μL of 30 nM IDH1-R132H or 10 nM IDH1-R132C recombinant protein in assay buffer (50 mM Tris pH=7.5, 150 mM NaCl, 5 mM MgCl2, 0.1% (w/v) Bovine Serum Albumin, and 0.01% Triton X-100) in each well at 25° C. for 15 minutes. After the plate was centrifuged briefly, an aliquot of 10 μL of 2 mM α-ketoglutarate and 20 μM NADPH solution prepared in assay buffer was then added to each well and the reaction was maintained at 25° C. for 45 minutes. An aliquot of 10 μL of diaphorase solution (0.15 U/mL diaphorase and 30 µM Resazurin in assay buffer) was added to each well. The plate was maintained at 25° C. for 15 minutes and then read on a plate reader with excitation and emission wavelengths at 535 nm and 590 nm, respectively. The IC50 of a given compound was calculated by fitting the dose response curve of inhibition of NADPH consumption at a given concentration with the four parameter logistic equation.
On the technique in general: The colour change of resazurin is a common sign of viable cells or microbes.
In the case of `C[C@H](Nc1nccc(N(CC(C)(C)C)S(C)(=O)=O)n1)c1cc2cc(Cl)ccc2[nH]c1=O` [Compound I-1], the IC50 (as a rule, the concentration needed to halve the response being measured) is less than 100 nM. The value for `C[C@H](Nc1nccc(CN(C2CC2)S(C)(=O)=O)n1)c1cc2cc(Cl)ccc2[nH]c1=O` [Compound I-6, (S)—N-((2-((1-(6-Chloro-2-oxo-1,2-dihydroquinolin-3-yl)ethyl)amino)pyrimidin-4-yl)methyl)-N-cyclopropylmethanesulfonamide] was 100 to 1000 nM; that for `C[C@H](Nc1nccc(NC2CC2)n1)c1cc2cc(Cl)ccc2[nH]c1=O` [Compound I-9, (S)-6-Chloro-3-(1-((4-(cyclopropylamino)pyrimidin-2-yl)amino)ethyl)quinolin-2(1H)-one] was 1000 to 10000 nM; that for `C[C@H](Nc1nccc(N(CC(F)(F)F)S(C)(=O)=O)n1)c1cc2cc(Cl)ccc2[nH]c1=O` [Compound I-13] was less than 100 nM. With `C[C@H](Nc1nccc(NS(C)(=O)=O)n1)c1cc2cc(Cl)ccc2[nH]c1=O` [Compound I-17], the IC50 is more than 10000 nM. For `CC(C)CS(=O)(=O)Nc1ccnc(N[C@@H](C)c2cc3cc(Cl)ccc3[nH]c2=O)n1` [Compound I-18], the IC50 is 1000 to 10000 nM. In the case of `C[C@H](Nc1nccc(N(CC(C)(C)O)S(C)(=O)=O)n1)c1cc2cc(Cl)ccc2[nH]c1=O` [Compound I-19] it was 1000 to 10000 nM; in that of `CC(C)CC(=O)N(c1ccnc(N[C@@H](C)c2cc3cc(Cl)ccc3[nH]c2=O)n1)C1CC1` [Compound I-24, (S)—N-(2-((1-(6-Chloro-2-oxo-1,2-dihydroquinolin-3-yl)ethyl)amino)pyrimidin-4-yl)-N-cyclopropyl-3-methylbutanamide], 100 to 1000 nM. Consider `CC(=O)N(CC(C)(C)C)c1ccnc(N[C@@H](C)c2cc3cc(Cl)ccc3[nH]c2=O)n1` [Compound I-26, (S)—N-(2-((1-(6-Chloro-2-oxo-1,2-dihydroquinolin-3-yl)ethyl)amino)pyrmidin-4-yl)-N-neopentylacetamide], for which the IC50 was less than 100 nM. The value for `C[C@H](Nc1nccc(NC(=O)CC2CCOCC2)n1)c1cc2cc(Cl)ccc2[nH]c1=O` [Compound I-27, (S)—N-(2-((1-(6-chloro-2-oxo-1,2-dihydroquinolin-3-yl)ethyl)amino)pyrimidin-4-yl)-2-(tetrahydro-2H-pyran-4-yl)acetamide] was 100 to 1000 nM; that for `CC(=O)N(c1ccnc(N[C@@H](C)c2cc3cc(Cl)ccc3[nH]c2=O)n1)C1CC1` [Compound I-28, (S)—N-(2-((1-(6-chloro-2-oxo-1,2-dihydroquinolin-3-yl)ethyl)amino)pyrimidin-4-yl)-N-cyclopropylacetamide] was 100 to 1000 nM; that for `CC(=O)N(c1ccnc(N[C@@H](C)c2cc3cc(Cl)ccc3[nH]c2=O)n1)C(C)(C)C` [Compound I-30] was 1000 to 10000 nM. For `CC(C)CC(=O)Nc1ccnc(N[C@@H](C)c2cc3cc(Cl)ccc3[nH]c2=O)n1` [Compound I-31], the IC50 fell in the range of 100 to 1000 nM.

As for `COCC(=O)Nc1ccnc(N[C@@H](C)c2cc3cc(Cl)ccc3[nH]c2=O)n1` [Compound I-32, (S)—N-(2-((1-(6-Chloro-2-oxo-1,2-dihydroquinolin-3-yl)ethyl)amino)pyrimidin-4-yl)-2-methoxyacetamide], the IC50 was less than 100 nM.

With `CC(=O)N(CC(C)C)c1ccnc(NC(C)c2cc3cc(Cl)ccc3[nH]c2=O)n1` (centres unmarked) [Compound I-34], the IC50 is 100 to 1000 nM. The value for `CC(C)[C@H]1COC(=O)N1c1ccnc(N[C@H](C)c2cc3cc(Cl)ccc3[nH]c2=O)n1` [Compound I-43, (S)-3-(2-(((R)-1-(6-Chloro-2-oxo-1,2-dihydroquinolin-3-yl)ethyl)amino)pyrimidin-4-yl)-4-isopropyloxazolidin-2-one] was more than 10000 nM. The value for `CC(Nc1nccc(N2CCOC2=O)n1)c1cc2ccccc2[nH]c1=O` (centres unmarked) [Compound I-49] was 100 to 1000 nM. With `O=C1CCCN1c1ccnc(NCc2cc3cc(Cl)ccc3[nH]c2=O)n1` [Compound I-50], the IC50 was in the range of 100 to 1000 nM. The value for `C[C@H](Nc1nccc(-n2cccc2)n1)c1cc2cc(Cl)ccc2[nH]c1=O` [Compound I-52] was 100 to 1000 nM; that for `Cc1ncn(-c2ccnc(N[C@@H](C)c3cc4cc(Cl)ccc4[nH]c3=O)n2)c1C` [Compound I-53, (S)-6-Chloro-3-(1-((4-(4,5-dimethyl-1H-imidazol-1-yl)pyrimidin-2-yl)amino)ethyl)quinolin-2(1H)-one] was less than 100 nM. In the case of `Cc1nccn1-c1ccnc(N[C@@H](C)c2cc3cc(Cl)ccc3[nH]c2=O)n1` [Compound I-56] it was 1000 to 10000 nM; in that of `Cc1cn(-c2ccnc(N[C@@H](C)c3cc4cc(Cl)ccc4[nH]c3=O)n2)cn1` [Compound I-57], 100 to 1000 nM. The value for `C[C@H](Nc1nccc(-c2cncnc2)n1)c1cc2cc(Cl)ccc2[nH]c1=O` [Compound I-62, (S)-3-(1-(4,5′-bipyrimidin-2-ylamino)ethyl)-6-chloroquinolin-2(1H)-one] was 1000 to 10000 nM; that for `C[C@H](Nc1nccc(-c2ccnn2C)n1)c1cc2cc(Cl)ccc2[nH]c1=O` [Compound I-67, (S)-6-Chloro-3-(1-((4-(1-methyl-1H-pyrazol-5-yl)pyrimidin-2-yl)amino)ethyl)quinolin-2(1H)-one] was 100 to 1000 nM; that for `Cc1noc(C)c1-c1ccnc(N[C@@H](C)c2cc3cc(Cl)ccc3[nH]c2=O)n1` [Compound I-69] was 1000 to 10000 nM. As to `C[C@H](Nc1nccc(-c2cnoc2)n1)c1cc2cc(Cl)ccc2[nH]c1=O` [Compound I-70], the IC50 lay within 1000 to 10000 nM. With `CC(=O)c1ccccc1-c1ccnc(N[C@@H](C)c2cc3cc(Cl)ccc3[nH]c2=O)n1` [Compound I-72], the IC50 lay within 1000 to 10000 nM.

`CC(=O)Nc1ccccc1-c1ccnc(N[C@@H](C)c2cc3cc(Cl)ccc3[nH]c2=O)n1` [Compound I-73]: the IC50 was in the range of 1000 to 10000 nM.

In the case of `Cc1cc(-c2ccnc(N[C@@H](C)c3cc4cc(Cl)ccc4[nH]c3=O)n2)n(C)n1` [Compound I-76], the IC50 was 1000 to 10000 nM. `Cc1nn(C)cc1-c1ccnc(N[C@@H](C)c2cc3cc(Cl)ccc3[nH]c2=O)n1` [Compound I-77]: the IC50 fell in the range of 1000 to 10000 nM.

On to `Cc1nc(C)c(-c2ccnc(N[C@@H](C)c3cc4cc(Cl)ccc4[nH]c3=O)n2)s1` [Compound I-78], for which the IC50 lay within 1000 to 10000 nM.

`Cc1n[nH]c(C)c1-c1ccnc(N[C@@H](C)c2cc3cc(Cl)ccc3[nH]c2=O)n1` [Compound I-82]: the IC50 lay within 1000 to 10000 nM. In the case of `Cc1nc(N[C@@H](C)c2cc3cc(Cl)ccc3[nH]c2=O)ncc1Br` [Compound I-103] it was 100 to 1000 nM; in that of `C[C@H](Nc1nccc(S(C)(=O)=O)n1)c1cc2cc(Cl)ccc2[nH]c1=O` [Compound I-105, (S)-6-Chloro-3-(1-((4-(methylsulfonyl)pyrimidin-2-yl)amino)ethyl)quinolin-2(1H)-one], 100 to 1000 nM; in that of `CC(C)C[S@@+]([O-])c1ccnc(N[C@@H](C)c2cc3cc(Cl)ccc3[nH]c2=O)n1` [Compound I-106], 1000 to 10000 nM. Regarding `CC(C)CSc1ccnc(N[C@@H](C)c2cc3cc(Cl)ccc3[nH]c2=O)n1` [Compound I-107], the IC50 is 1000 to 10000 nM.

On to `CC(C)CS(=O)(=O)c1ccnc(N[C@@H](C)c2cc3cc(Cl)ccc3[nH]c2=O)n1` [Compound I-108], for which the IC50 was 100 to 1000 nM. In the case of `CC(C)C[S@+]([O-])c1ccnc(N[C@@H](C)c2cc3cc(Cl)ccc3[nH]c2=O)n1` [Compound I-109] it was less than 100 nM.

For the compound `C[C@H](Nc1nccc(SCc2ccccc2)n1)c1cc2cc(Cl)ccc2[nH]c1=O` [Compound I-110], the IC50 was 1000 to 10000 nM. Turning to `CC(C)CC(c1ccnc(N[C@@H](C)c2cc3cc(Cl)ccc3[nH]c2=O)n1)S(C)(=O)=O` (some centres unmarked) [Compound I-118], the IC50 is 100 to 1000 nM. The value for `C[C@H](Nc1nccc(CN2CCCS2(=O)=O)n1)c1cc2cc(Cl)ccc2[nH]c1=O` [Compound I-119, (S)-6-chloro-3-(1-((4-((1,1-dioxidoisothiazolidin-2-yl)methyl)pyrimidin-2-yl)amino)ethyl) quinolin-2(1H)-one] was 100 to 1000 nM; that for `C[C@H](Nc1nccc(C2CCCS2(=O)=O)n1)c1cc2cc(Cl)ccc2[nH]c1=O` (some centres unmarked) [Compound I-120] was 100 to 1000 nM; that for `C[C@H](Nc1nccc(NC2CCOC2)n1)c1cc2cc(Cl)ccc2[nH]c1=O` (stereo partly drawn) [Compound I-122, 6-Chloro-3-((1S)-1-((4-((tetrahydrofuran-3-yl)amino)pyrimidin-2-yl)amino)ethyl) quinolin-2(1H)-one] was 1000 to 10000 nM. In the case of `C[C@H](Nc1nccc(N(C)C(=O)N(C)C)n1)c1cc2cc(Cl)ccc2[nH]c1=O` [Compound I-125, (S)-1-(2-((1-(6-chloro-2-oxo-1,2-dihydroquinolin-3-yl)ethyl)amino)pyrimidin-4-yl)-1,3,3-trimethylurea] it was 1000 to 10000 nM. In the case of `C[C@H](Nc1nccc(NC(=O)N(C)C)n1)c1cc2cc(Cl)ccc2[nH]c1=O` [Compound I-126, (S)-3-(2-((1-(6-chloro-2-oxo-1,2-dihydroquinolin-3-yl)ethyl)amino)pyrimidin-4-yl)-1,1-dimethylurea] it was more than 10000 nM. `C[C@H](Nc1nccc(Nc2ncco2)n1)c1cc2cc(Cl)ccc2[nH]c1=O` [Compound I-127, (S)-6-Chloro-3-(1-((4-(oxazol-2-ylamino)pyrimidin-2-yl)amino)ethyl)quinolin-2(1H)-one]: the IC50 lay in the range of 100 to 1000 nM. `CC(C)CN(c1ccnc(N[C@@H](C)c2cc3cc(Cl)ccc3[nH]c2=O)n1)c1ncco1` [Compound I-128]: the IC50 is 100 to 1000 nM.
